# Reference: patent US9125862B2, “Methods for the treatment of Prader-Willi-like syndrome or non-organic failure to thrive (NOFITT) feeding disorder using an agonist of the oxytocin receptor” (Institut National de la Sante et de la Rechereche Medicale …, priority 2010, dated 2015)
# Tests used:
# adult patients with PWS [1] = experiment: Eating behaviour scoring after intranasal administration; format: in vivo, human
# From the text: The behaviour of the patients was carefully monitored, scored daily by the team psychologist, and documented on the case report form for the two days before drug administration, on the half-day following administration (early effects) and over the two days following drug administration (late effects). Both the staff and the rater were unaware of treatment status. There are currently no validated grids that evaluate the specific behavioural features of patients with PWS that they particularly wanted to study, i.e. tendencies towards isolation, sadness, and depression, self-depreciation, self-mutilation, conflicts with others, disruptive behaviour, interest in friendship, interest in love affairs, and trust of others. […] The patients were well known to the team but the mean behavior status was re-evaluated during the first week of admission using the same grid. The behavioural features of the patients were scored as unchanged, moderately changed, or severely changed. […] Eating behaviour was also scored using three categories: usual, better than usual or worse, based on the analysis of each meal. The following were evaluated: amount of food intake per meal, amount of food requested per meal, duration of meal, and behaviour before/during/after the meal. To evaluate the early effect of OT, we analysed only the first meal after drug administration.
# Magel2 KO neonates = experiment: Injection of oxytocin or vasopressin in Magel2 KO neonates: rescue of feeding and survival; format: in vivo, mouse
# Protocol: (§1) Three to 5 hours after delivery, wild type pups or pups issued from a cross between an heterozygote (+/−) male with wild type females were temporally removed (10 min) from their mother, weighted and given a single s.c. (in the ventral region at the level of floating ribs) injection (20 μl) of isotonic saline or 2 μg oxytocin (Phoenix Pharmaceuticals. Inc., Catalog No. 051-01) dissolved in isotonic saline (20 μl). […] Following the same protocol, we injected vasopressin (Phoenix Pharmaceuticals. Inc., Catalog No. 065-07) at different doses. At P2, pups were scarified to be genotyped.
# The results obtained with the injection of SSR 126768A OTA let us think that we might restore a normal feeding behaviour in Magel2 KO newborns with an OT injection just after birth. Early neonatal manipulation of OT was reported in the literature without alterations of the postnatal development (Cushing, B. S., et Al., 2003; Yamamoto, Y., et al., 2004; Saito, O., et Al., 2007). Initially, 28 wild type newborns were injected with an isotonic saline (20 μl) and 4 of them died at P1. Another cohort of 28 wild type newborns, […] on hypothalamic nuclei one hour after the injection (Cushing, B. S., et Al., 2003; Yamamoto, Y., et al., 2004). We then decided to inject 2 μg of OT in Magel2 KO and wild type newborns, 3 to 5 hours after birth, the time when wild type newborns started to suckle but not the mutant neonates. […] The level of lethality is similar after an injection of saline solution (4/28 dead pups) or oxytocin (3/28 dead pups) and is in the range of lethality normally observed in wild type cohorts. In a second step, ten litters including a total of 37 wild type and 40 Magel2 KO neonates, were injected with an oxytocin solution. At P2, we observed that 95% (35/37) of wild type and 93% (37/40) of Magel2 mutant newborns survived with milk previously detected in their stomach at P1. In parallel, we controlled that the rescue of Magel2 KO neonates was specifically due to the oxytocin injection and not to the injection stress and/or handling of neonates. […]
# wild type newborns = experiment: Injection of oxytocin in wild type neonates: lethality and survival; format: in vivo, mouse
# Protocol: as §1
# The results obtained with the injection of SSR 126768A OTA let us think that we might restore a normal feeding behaviour in Magel2 KO newborns with an OT injection just after birth. Early neonatal manipulation of OT was reported in the literature without alterations of the postnatal development (Cushing, B. S., et Al., 2003; Yamamoto, Y., et al., 2004; Saito, O., et Al., 2007). Initially, 28 wild type newborns were injected with an isotonic saline (20 μl) and 4 of them died at P1. Another cohort of 28 wild type newborns, […] on hypothalamic nuclei one hour after the injection (Cushing, B. S., et Al., 2003; Yamamoto, Y., et al., 2004). […] At P2, we observed that 95% (35/37) of wild type and 93% (37/40) of Magel2 mutant newborns survived with milk previously detected in their stomach at P1. […]
# adult patients with PWS [2] = experiment: Tolerance in the clinical pilot study; format: in vivo, human; conditions: single intranasal 24 UI
# From the text: The inventors designed a double-blind randomised, placebo-controlled pilot study (ClinicalTrials.gov Identifier: NCT01038570) to be conducted in a dedicated PWS centre, where patients are regularly admitted for one month and live in a controlled environment. Patients know they have no free access to food but no doubt about the time and the content of meals. For each stay, 16 patients with PWS are admitted and take part in daily planned occupational and physical group activities. They also receive medical care as needed and psychological support. The 24 patients included in this study (16 females, 8 males, median age 28.5 years [18.7 to 43.6], median BMI 43 kg/m2 [19.4 to 67.4]) were stratified on gender and IQ (median IQ=51 [45 to 75]). […] Patients as well as parents or caregivers gave their written consent prior to entering the study. Exclusion criteria were an abnormal ECG and other severe cardiovascular problems. Patients were well known to the team. Each pair of patients of the same gender and same IQ range was evaluated the same day. The two patients of the pair received either OT or placebo in a double-blind randomisation. Patients were included in the study over the course of three series of stays.
# Each patient received a single intranasal administration of either placebo (saline solution) or OT (Syntocinon®/-Spray, Novartis, Basel, Switzerland) with three puffs per nostril (24 UI). The dose of 24 UI is the most frequently reported in the literature. […] This nurse knew neither the patients nor the study.
# adult patients with PWS [3] = experiment: Tests evaluating the understanding of social codes (Sally and Ann, Cartoons, RMET); format: in vivo, human; conditions: 45 minutes after intranasal 24 UI
# Protocol: Forty-five minutes after the intranasal administration, three tests evaluating the understanding of social codes were administered, which lasted one hour. Conversely to the behavioural grid, there was no pre-administration evaluation. The Sally and Ann test assesses one's ability to understand simple situations by story-telling and pictures. Cartoons depicting more complex social situations designed for the evaluation of autistic children were also used (“Cartoons”, unpublished test). The “Reading the Mind in the Eyes” test (RMET) assesses the ability to read emotions from subtle affective facial expressions, especially in the eyes. A shortened test with 19 images from the 36-item revised version was chosen by the team psychologist. In these three tests, TOM is necessary to understand and analyse the social situations that are presented. Statistical analysis was performed using the Mann-Whiney test, the Wilcoxon test or the chi2 test.
compound,measurement,setting,value
CC[C@H](C)[C@@H]1NC(=O)[C@H](Cc2ccc(O)cc2)NC(=O)[C@@H](N)CSSC[C@@H](C(=O)N2CCC[C@H]2C(=O)N[C@@H](CC(C)C)C(=O)NCC(N)=O)NC(=O)[C@H](CC(N)=O)NC(=O)[C@H](CCC(N)=O)NC1=O [oxytocin],"scores assessing eating behaviour, OT vs placebo group",adult patients with PWS [1]; intranasal 24 UI,No statistical difference
same,patients who did not feel hungry and slightly decreased their food intake,"adult patients with PWS [1]; over the two days following intranasal administration, five patients, placebo 10%",45%
same,newborns survived at P2 with milk in stomach at P1,"Magel2 KO neonates; Magel2 mutant, 2 μg oxytocin s.c. 3 to 5 hours after birth, vehicle lethality 48.5% at P1",93%
same,rescue of the death rate due to the feeding deficit,"Magel2 KO neonates; one single injection, 3-5 hours after birth",efficiently rescue the death rate
same,level of lethality,"wild type newborns; s.c. oxytocin 2 μg in 20 μl NaCl 0.9%, wild type pups n=28, saline 4/28",3/28
same,newborns survived at P2 with milk in stomach at P1,"wild type newborns; wild type, 2 μg oxytocin s.c. 3 to 5 hours after birth",95%
same,Tolerance,adult patients with PWS [2],excellent
same,adverse event during the study,adult patients with PWS [2],No adverse event
same,effect on electrocardiogram and PSA,adult patients with PWS [2],no effect
same,patients who successfully completed the Sally and Ann test,"adult patients with PWS [3]; OT group n=12, placebo 50%, P=0.19",Eighty-three
same,Cartoons score,"adult patients with PWS [3]; OT vs placebo, P=0.56",3.75 (1-18)
same,total RMET score,"adult patients with PWS [3]; placebo 5.5 (1-11), P=0.18",7 (4-9)
